Assay: Hygroscopicity: moisture pick up of antiperspirant active in controlled relative humidity
Format: physicochemical
Conditions: at 86% RH, 5 days, 20° C.
Protocol: One way to evaluate the hygroscopic nature of an antiperspirant active is to determine the equilibrium moisture pick up of the active after 5 days in a controlled relative humidity environment. Specific humidity chambers can be created placing saturated salt solutions in desiccators at a specific temperature. Different salts are used to create different humidities, for example potassium chloride can be used to make an 86% relative humidity (RH) environment at 20° C. In general there is an increase in moisture pick up as humidity is increased for the antiperspirant actives shown, however there are clear differences in slope and amount of moisture pick up at high humidity. Materials with higher slope and larger increases at high humidity (i.e. 86% RH) are considered to be more hygroscopic. The aluminum zirconium trichlorohydrate active (metal to chloride ratio=1.6) from Inventive Example 1 is the least hygroscopic (28% moisture pick up at 86% RH) with the aluminum zirconium tetrachlorohydrate active (metal to chloride ratio=1.2) being substantially more hygroscopic (40% moisture pick up at 86% RH). […] This may explain the substantial difference observed in the amount of sweat measured between Inventive Examples 1 and 2. […]

Row | Substance | moisture pick up (hygroscopicity) [%]
1 | aluminum zirconium tetrachlorohydrate | 40
2 | aluminum zirconium trichlorohydrate | 28

Source: US20140260103A1, “Methods of Making Solid Stick Antiperspirant Compositions” (The Procter & Gamble Company, priority 2013, published 2014)
